Data published in patent publication US20040259948A1, “Reciprocal regulation of inflammation and lipid metabolism by liver X receptors” (priority 2003, published 2004).

Assays:
C57B1/6 mice = assay: Murine model of irritant contact dermatitis (TPA-treated ear); format: in vivo; conditions: topical 20 μl of 10 mM at 45 min and 4 h post-TPA; 18 h; relative to vehicle-treated ear
Protocol: The effects of LXR ligands in both acute and chronic inflammatory contexts were evaluated. First, the effects of LXR agonists in a murine model of irritant contact dermatitis (Sheu, M. Y. et al. 2002 J Invest Dermatol 118:94-101) were studied. Ears of C57B1/6 mice (n=5 per group) were treated topically with 12-O-tetradecanoylphorbol-13-acetate (TPA) (left ear) or with vehicle (right ear). […] Thickness and weight of 6-mm punch biopsies were determined for each group after 18 h TPA treatment and are presented relative to vehicle-treated ear. […] Analysis of hematoxylin and eosin (H&E) stained sections of the TPA-treated ears confirmed a reduction in edema and inflammatory infiltrate by LXR agonist. Thus, two structurally unrelated LXR agonists have anti-inflammatory activity in a model of cutaneous inflammation.
Animals. Mice on a mixed background (C57B1/6 and 129v) and Apoe^−/− mice on a C57B1/6 background were maintained on standard chow. […] Irritant contact dermatitis was induced as described (Sheu, M. Y. et al. 2002 J Invest Dermatol 118:94-101). Briefly, 10 μl of 0.03% 12-O-tetradecanoylphorbol-13-acetate (TPA) in acetone was applied to the left ears of male mice. The right ears were treated with vehicle alone. […] After 18 h of TPA treatment, the thickness and weight of 6-mm punch biopsies were determined. Statistical analysis was performed using Student's t-test. Experiments were conducted in accordance of the Animal Research Committee of the University of California, Los Angeles.

[1] = tested on: Thioglycolate-elicited murine peritoneal macrophages; assay: LPS-stimulated macrophages: NO production, iNOS and ABCA1 mRNA; format: cell-based
Protocol: To investigate the role of LXRs in host defense, the influence of LXR agonists on macrophage responses to bacterial pathogens was tested. Thioglycolate-elicited peritoneal macrophages were infected in vitro with Escherichia coli. After 18 hours, expression of inducible nitric oxide synthase (iNOS) mRNA and nitric oxide (NO) production were assessed. […] This repression occurs over the same concentration range needed to induce the established LXR target gene ATP-binding cassette transporter A1 (ABCA1). A, LXR agonist inhibits nitrite production in response to bacterial infection. […] Cells were then infected with E. coli (A, B) or treated with 100 ng/ml LPS(C, D, E) as indicated. After 18 h, NO production was determined using a colorimetric assay (A, D), or mRNA levels were determined using real-time quantitative PCR assays (B, C, E). […] The inhibitory effect of LXR agonists on iNOS expression was dose-dependent and occurred over the same range of concentration as that required to induce ATP-binding cassette transporter A1 (ABCA1) (FIGS. 1D and E).
The anti-inflammatory activity of LXR ligands can be separated from the induction of lipid metabolism genes such as ABCA1. Murine peritoneal macrophages were treated with LPS to induce iNOS gene expression (FIG. 8A) and were assayed for ABCA1 mRNA by real time qPCR (FIG. 8B). NOx production was measured by colorimetric assay. […] The identification of LXR agonists with only anti-inflammatory activity should greatly increase the usefulness of such compounds as therapeutic agents, because they lack the unwanted side effects on lipid metabolism such as elevation of triglyceride levels.
Cell culture and transfections. Thioglycolate-elicited peritoneal macrophages were cultured in RPMI containing 10% fetal bovine serum (FBS). RAW 264.7 cells were cultured in DMEM containing 10% FBS. For ligand treatments, cells were in cultured medium supplemented with 5% lipoprotein-deficient serum (LPDS) and ligands for 18 h before stimulation. Bacterial infection in vitro was performed as described (Chen, L. M. et al. 1996 Mol Microbiol 21:1101-1115). Transient transfections of RAW 264.7 cells were performed in triplicate in 48-well plates using Superfect reagent (Life Technologies). After transfection, cells were incubated in medium containing 10% LPDS and the indicated ligands for 18 h before stimulation with LPS for an additional 18 h. Luciferase activity was normalized to β-galactosidase activity. NO production was determined spectrophotometrically (Castrillo, A. et al. 2000 Mol Cell Biol 20:1692-1698).
RNA and protein analysis. Total RNA was extracted using Trizol reagent (Life Technologies, Inc.). Northern blot analysis was carried out as described using radiolabeled cDNA probes (Tontonoz, P. et al. 1998 Cell 93:241-252). Real-time quantitative PCR (TaqMan) analysis was performed using an Applied Biosystems 7700 sequence detector. Two-step real-time PCR was performed as described (Joseph, S. B. et al. 2002 J Biol Chem 277:11019-11025). The primers and probes used are as follows: […]

[2] = tested on: Thioglycolate-elicited murine peritoneal macrophages; assay: IL-1β- or TNFα-induced inflammatory gene expression in macrophages; format: cell-based; conditions: pretreated 18 h; IL-1β or TNFα (50 ng/ml); real-time quantitative PCR
Protocol: Next, the influence of LXR agonists on inflammatory gene expression induced by IL-1β and TNFα, which have been implicated in the pathogenesis of atherosclerosis, was tested. […] Gene expression was detected by real-time quantitative PCR assays. […] Total RNA was isolated from individual aortas and gene expression was measured by real-time quantitative PCR. P<0.05 for MMP-9 (*) and P<0.01 (**) for ABCA1. […] Thus, LXR agonist reduces expression of an established inflammatory mediator in the vessel wall. Cell culture and transfections. Thioglycolate-elicited peritoneal macrophages were cultured in RPMI containing 10% fetal bovine serum (FBS). RAW 264.7 cells were cultured in DMEM containing 10% FBS. For ligand treatments, cells were in cultured medium supplemented with 5% lipoprotein-deficient serum (LPDS) and ligands for 18 h before stimulation. Bacterial infection in vitro was performed as described (Chen, L. M. et al. 1996 Mol Microbiol 21:1101-1115). Transient transfections of RAW 264.7 cells were performed in triplicate in 48-well plates using Superfect reagent (Life Technologies). After transfection, cells were incubated in medium containing 10% LPDS and the indicated ligands for 18 h before stimulation with LPS for an additional 18 h. Luciferase activity was normalized to β-galactosidase activity. NO production was determined spectrophotometrically (Castrillo, A. et al. 2000 Mol Cell Biol 20:1692-1698). RNA and protein analysis. Total RNA was extracted using Trizol reagent (Life Technologies, Inc.). Northern blot analysis was carried out as described using radiolabeled cDNA probes (Tontonoz, P. et al. 1998 Cell 93:241-252). Real-time quantitative PCR (TaqMan) analysis was performed using an Applied Biosystems 7700 sequence detector. Two-step real-time PCR was performed as described (Joseph, S. B. et al. 2002 J Biol Chem 277:11019-11025). The primers and probes used are as follows: […]

[3] = 100 ng/ml LPS, 18 h, real-time quantitative PCR, FIG. 1E

`O=C(O)Cc1cccc(OCCCN(Cc2cccc(C(F)(F)F)c2Cl)CC(c2ccccc2)c2ccccc2)c1` [GW3965] was tested, and the ear thickness (C57B1/6 mice) was “reduced”, the “ear weight (6-mm punch biopsies)” value (C57B1/6 mice) was “reduced” and the “nitrite production, dose response” value ([1]; 100 ng/ml LPS, 18 h, colorimetric assay, FIG. 1D) was “Dose-dependent inhibition”. For the same compound, the “ABCA1 mRNA expression, dose response” value [1, 3] was “Reciprocal dose-dependent regulation”, the “iNOS mRNA expression, dose response” value [1, 3] was “Reciprocal dose-dependent regulation” and the “inhibition of inflammatory genes (NOx production), T1317 compared with GW3965” value ([1]; LPS, increasing doses, colorimetric assay, FIG. 8A) was “more effective inhibitor”. For the same compound, the “induction of IL-6 expression” value [2] was “inhibited” and the “induction of iNOS expression” value [2] was “inhibited”.
